Measured values: US12723063B2, “GIPR-agonist compounds” (Eli Lilly and Company, priority 2019, dated 2026)
pKi: −log10 of the molar value. *1 amine or outer side, *2 acyl side, *3 side chain or, on linkers, in order; H or OH if unused. Where a SMILES comes first, the peptide text is derived from it. Side-chain parts run from the residue outwards. [ ]: non-standard residue; d: D form. The star is where a group is joined. C20 diacid = O=C(O)CCCCCCCCCCCCCCCCCCC(=O)*; C18 diacid = O=C(O)CCCCCCCCCCCCCCCCC(=O)*; γGlu = O=C(O)[C@H](CCC(=O)[*:2])N[*:1]; αMeF = C[C@](N)(Cc1ccccc1)C(=O)O; 4Pal = N[C@@H](Cc1ccncc1)C(=O)O; αMeL = CC(C)C[C@](C)(N)C(=O)O; AEEA = NCCOCCOCC(=O)O; Aib = CC(C)(N)C(=O)O

Biological target: T1, human GcgR (Homo sapiens, UniProt P47871)
T1 construct: expressed in transfected cells; crude membranes
T1 sequence (P47871 26-477): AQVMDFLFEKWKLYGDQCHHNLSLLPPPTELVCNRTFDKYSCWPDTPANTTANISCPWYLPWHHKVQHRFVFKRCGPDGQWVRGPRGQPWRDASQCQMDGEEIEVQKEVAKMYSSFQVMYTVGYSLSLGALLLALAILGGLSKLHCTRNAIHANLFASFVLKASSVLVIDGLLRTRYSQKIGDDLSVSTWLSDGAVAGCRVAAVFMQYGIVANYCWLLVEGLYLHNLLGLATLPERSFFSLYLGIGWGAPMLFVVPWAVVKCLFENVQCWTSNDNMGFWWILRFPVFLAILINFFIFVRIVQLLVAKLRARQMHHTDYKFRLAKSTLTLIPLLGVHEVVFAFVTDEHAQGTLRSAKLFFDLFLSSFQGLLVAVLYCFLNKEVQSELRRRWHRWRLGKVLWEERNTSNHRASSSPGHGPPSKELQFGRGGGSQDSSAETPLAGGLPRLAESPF
Test: [125I]-Glucagon binding, SPA with WGA beads, 0.1% bacitracin
Details: geometric mean, read-out: hGcgR Ki
Procedure, shortened: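 SPA competition binding with WGA beads on crude membranes from HEK293 cells stably expressing hGcgR. Buffer: 25 mM HEPES pH 7.4, 2.5 mM CaCl2, 1 mM MgCl2, 0.1% bacitracin, 0.003% Tween-20; 10-point 3-fold dilutions, NSB with 1 μM Gcg.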

Compound | pKi
CC[C@H](C)[C@H](NC(=O)[C@H](CO)NC(=O)[C@H](Cc1ccc(O)cc1)NC(=O)[C@H](CC(=O)O)NC(=O)[C@H](CO)NC(=O)[C@@H](NC(=O)[C@](C)(Cc1ccccc1)NC(=O)[C@@H](NC(=O)CNC(=O)[C@H](CCC(=O)O)NC(=O)C(C)(C)NC(=O)[C@@H](N)Cc1ccc(O)cc1)[C@@H](C)O)[C@@H](C)CC)C(=O)N[C@@](C)(CC(C)C)C(=O)N[C@@H](CC(C)C)C(=O)N[C@@H](CC(=O)O)C(=O)N[C@@H](CCCCN)C(=O)N[C@@H](CCCCNC(=O)COCCOCCNC(=O)COCCOCCNC(=O)CC[C@H](NC(=O)CCCCCCCCCCCCCCCCCCC(=O)O)C(=O)O)C(=O)N[C@@H](Cc1c[nH]cn1)C(=O)N[C@@H](CCC(N)=O)C(=O)NC(C)(C)C(=O)N[C@@H](CCC(=O)O)C(=O)N[C@@H](Cc1ccccc1)C(=O)N[C@H](C(=O)N[C@@H](CCC(=O)O)C(=O)N[C@@H](Cc1ccncc1)C(=O)N[C@@H](CC(C)C)C(=O)N[C@@H](CC(C)C)C(=O)N[C@@H](C)C(=O)N[C@@H](CCC(N)=O)C(=O)NCC(=O)N1CCC[C@H]1C(=O)N[C@@H](CO)C(=O)N[C@@H](CO)C(=O)NCC(=O)N[C@@H](C)C(=O)N1CCC[C@H]1C(=O)N1CCC[C@H]1C(=O)N1CCC[C@H]1C(=O)N[C@@H](CO)C(N)=O)C(C)C [Example 60] (H-Y[Aib]EGT[αMeF]ISDYSI[αMeL]LDKK([AEEA-AEEA-γGlu-C20 diacid])HQ[Aib]EFVE[4Pal]LLAQGPSSGAPPPS-NH2) | 7.58
CC[C@H](C)[C@H](NC(=O)[C@H](Cc1ccccc1)NC(=O)[C@@H](NC(=O)CNC(=O)[C@H](CCC(=O)O)NC(=O)C(C)(C)NC(=O)[C@@H](N)Cc1ccc(O)cc1)[C@@H](C)O)C(=O)N[C@@H](CO)C(=O)N[C@@H](CC(=O)O)C(=O)N[C@@H](Cc1ccc(O)cc1)C(=O)N[C@@H](CO)C(=O)N[C@H](C(=O)N[C@@](C)(CC(C)C)C(=O)N[C@@H](CC(C)C)C(=O)N[C@@H](CC(=O)O)C(=O)N[C@@H](CCCCN)C(=O)N[C@@H](CCCCNC(=O)COCCOCCNC(=O)COCCOCCNC(=O)CC[C@H](NC(=O)CCCCCCCCCCCCCCCCCCC(=O)O)C(=O)O)C(=O)N[C@@H](Cc1c[nH]cn1)C(=O)N[C@@H](CCC(N)=O)C(=O)NC(C)(C)C(=O)N[C@@H](CC(=O)O)C(=O)N[C@@H](Cc1ccccc1)C(=O)N[C@H](C(=O)N[C@@H](CCC(=O)O)C(=O)N[C@@H](Cc1c[nH]c2ccccc12)C(=O)N[C@@H](CC(C)C)C(=O)N[C@@H](CC(C)C)C(=O)N[C@@H](C)C(=O)NCC(=O)NCC(=O)N1CCC[C@H]1C(=O)N[C@@H](CO)C(=O)N[C@@H](CO)C(=O)NCC(=O)N[C@@H](C)C(=O)N1CCC[C@H]1C(=O)N1CCC[C@H]1C(=O)N1CCC[C@H]1C(=O)N[C@@H](CO)C(N)=O)C(C)C)[C@@H](C)CC [Example 54] (H-Y[Aib]EGTFISDYSI[αMeL]LDKK([AEEA-AEEA-γGlu-C20 diacid])HQ[Aib]DFVEWLLAGGPSSGAPPPS-NH2) | 6.41
CC[C@H](C)[C@H](NC(=O)[C@H](CC(C)C)NC(=O)[C@@H](NC(=O)CNC(=O)[C@H](CCC(=O)O)NC(=O)C(C)(C)NC(=O)[C@@H](N)Cc1ccc(O)cc1)[C@@H](C)O)C(=O)N[C@@H](CO)C(=O)N[C@@H](CC(=O)O)C(=O)N[C@@H](Cc1ccc(O)cc1)C(=O)N[C@@H](CO)C(=O)N[C@H](C(=O)N[C@@](C)(CC(C)C)C(=O)N[C@@H](CC(C)C)C(=O)N[C@@H](CC(=O)O)C(=O)N[C@@H](CCCCN)C(=O)N[C@@H](CCCCNC(=O)COCCOCCNC(=O)COCCOCCNC(=O)CC[C@H](NC(=O)CCCCCCCCCCCCCCCCCCC(=O)O)C(=O)O)C(=O)N[C@@H](Cc1c[nH]cn1)C(=O)N[C@@H](CCC(N)=O)C(=O)NC(C)(C)C(=O)N[C@@H](CCC(=O)O)C(=O)N[C@@H](Cc1ccccc1)C(=O)N[C@H](C(=O)N[C@@H](CCC(=O)O)C(=O)N[C@@H](Cc1ccc(O)cc1)C(=O)N[C@@H](CC(C)C)C(=O)N[C@@H](CC(C)C)C(=O)N[C@@H](CCC(=O)O)C(=O)N[C@H](C(=O)NCC(=O)N1CCC[C@H]1C(=O)N[C@@H](CO)C(=O)N[C@@H](CO)C(=O)NCC(=O)N[C@@H](C)C(=O)N1CCC[C@H]1C(=O)N1CCC[C@H]1C(=O)N1CCC[C@H]1C(=O)N[C@@H](CO)C(N)=O)[C@@H](C)O)C(C)C)[C@@H](C)CC [Example 72] (H-Y[Aib]EGTLISDYSI[αMeL]LDKK([AEEA-AEEA-γGlu-C20 diacid])HQ[Aib]EFVEYLLETGPSSGAPPPS-NH2) | 6.08
CC[C@H](C)[C@H](NC(=O)[C@H](CO)NC(=O)[C@H](Cc1ccc(O)cc1)NC(=O)[C@H](CC(=O)O)NC(=O)[C@H](CO)NC(=O)[C@@H](NC(=O)[C@](C)(Cc1ccccc1)NC(=O)[C@@H](NC(=O)CNC(=O)[C@H](CCC(=O)O)NC(=O)C(C)(C)NC(=O)[C@@H](N)Cc1ccc(O)cc1)[C@@H](C)O)[C@@H](C)CC)C(=O)N[C@@H](C)C(=O)N[C@@H](CC(C)C)C(=O)N[C@@H](CC(=O)O)C(=O)N[C@@H](CCCCN)C(=O)N[C@@H](CCCCNC(=O)COCCOCCNC(=O)COCCOCCNC(=O)CC[C@H](NC(=O)CCCCCCCCCCCCCCCCCCC(=O)O)C(=O)O)C(=O)N[C@@H](Cc1c[nH]cn1)C(=O)N[C@@H](CCC(N)=O)C(=O)NC(C)(C)C(=O)N[C@@H](CC(=O)O)C(=O)N[C@@H](Cc1ccccc1)C(=O)N[C@H](C(=O)N[C@@H](CCC(=O)O)C(=O)N[C@@H](Cc1ccncc1)C(=O)N[C@@H](CC(C)C)C(=O)N[C@@H](CC(C)C)C(=O)N[C@@H](CCC(=O)O)C(=O)N[C@@H](C)C(=O)NCC(=O)N1CCC[C@H]1C(=O)N[C@@H](CO)C(=O)N[C@@H](CO)C(=O)NCC(=O)N[C@@H](C)C(=O)N1CCC[C@H]1C(=O)N1CCC[C@H]1C(=O)N1CCC[C@H]1C(=O)N[C@@H](CO)C(N)=O)C(C)C [Example 43] (H-Y[Aib]EGT[αMeF]ISDYSIALDKK([AEEA-AEEA-γGlu-C20 diacid])HQ[Aib]DFVE[4Pal]LLEAGPSSGAPPPS-NH2) | 6.55
CC[C@H](C)[C@H](NC(=O)[C@H](Cc1ccccc1)NC(=O)[C@@H](NC(=O)CNC(=O)[C@H](CCC(=O)O)NC(=O)C(C)(C)NC(=O)[C@@H](N)Cc1ccc(O)cc1)[C@@H](C)O)C(=O)N[C@@H](CO)C(=O)N[C@@H](CC(=O)O)C(=O)N[C@@H](Cc1ccc(O)cc1)C(=O)N[C@@H](CO)C(=O)N[C@H](C(=O)N[C@@](C)(CC(C)C)C(=O)N[C@@H](CC(C)C)C(=O)N[C@@H](CC(=O)O)C(=O)N[C@@H](CCCCN)C(=O)N[C@@H](CCCCNC(=O)COCCOCCNC(=O)COCCOCCNC(=O)CC[C@H](NC(=O)CCCCCCCCCCCCCCCCCCC(=O)O)C(=O)O)C(=O)N[C@@H](Cc1c[nH]cn1)C(=O)N[C@@H](CCC(N)=O)C(=O)NC(C)(C)C(=O)N[C@@H](CC(=O)O)C(=O)N[C@@](C)(Cc1ccccc1)C(=O)N[C@H](C(=O)N[C@@H](CCC(=O)O)C(=O)N[C@@H](Cc1ccncc1)C(=O)N[C@@H](CC(C)C)C(=O)N[C@@H](CC(C)C)C(=O)N[C@@H](C)C(=O)NCC(=O)NCC(=O)N1CCC[C@H]1C(=O)N[C@@H](CO)C(=O)N[C@@H](CO)C(=O)NCC(=O)N[C@@H](C)C(=O)N1CCC[C@H]1C(=O)N1CCC[C@H]1C(=O)N1CCC[C@H]1C(=O)N[C@@H](CO)C(N)=O)C(C)C)[C@@H](C)CC [Example 56] | 6.71
CC[C@H](C)[C@H](NC(=O)[C@H](CO)NC(=O)[C@H](Cc1ccc(O)cc1)NC(=O)[C@H](CC(=O)O)NC(=O)[C@H](CO)NC(=O)[C@@H](NC(=O)[C@H](CC(C)C)NC(=O)[C@@H](NC(=O)CNC(=O)[C@H](CCC(=O)O)NC(=O)[C@@H](C)NC(=O)[C@@H](N)Cc1ccc(O)cc1)[C@@H](C)O)[C@@H](C)CC)C(=O)N[C@@H](CC(C)C)C(=O)N[C@@H](CC(C)C)C(=O)N[C@@H](CC(=O)O)C(=O)N[C@@H](CCCCN)C(=O)N[C@@H](CCCCNC(=O)COCCOCCNC(=O)COCCOCCNC(=O)CC[C@H](NC(=O)CCCCCCCCCCCCCCCCC(=O)O)C(=O)O)C(=O)N[C@@H](C)C(=O)N[C@@H](CCC(N)=O)C(=O)NC(C)(C)C(=O)N[C@@H](CC(=O)O)C(=O)N[C@@H](Cc1ccccc1)C(=O)N[C@H](C(=O)N[C@@H](CC(N)=O)C(=O)N[C@@H](Cc1c[nH]c2ccccc12)C(=O)N[C@@H](CC(C)C)C(=O)N[C@@H](CC(C)C)C(=O)N[C@@H](C)C(=O)N[C@@H](CCC(N)=O)C(=O)NCC(=O)N1CCC[C@H]1C(=O)N[C@@H](CO)C(=O)N[C@@H](CO)C(=O)NCC(=O)N[C@@H](C)C(=O)N1CCC[C@H]1C(=O)N1CCC[C@H]1C(=O)N1CCC[C@H]1C(=O)N[C@@H](CO)C(N)=O)C(C)C [Example 32] (H-Y[dA]EGTLISDYSILLDKK([AEEA-AEEA-γGlu-C18 diacid])AQ[Aib]DFVNWLLAQGPSSGAPPPS-NH2) | < 6.02
CC[C@H](C)[C@H](NC(=O)[C@H](CO)NC(=O)[C@H](Cc1ccc(O)cc1)NC(=O)[C@H](CC(=O)O)NC(=O)[C@H](CO)NC(=O)[C@@H](NC(=O)[C@](C)(Cc1ccccc1)NC(=O)[C@@H](NC(=O)CNC(=O)[C@H](CCC(=O)O)NC(=O)C(C)(C)NC(=O)[C@@H](N)Cc1ccc(O)cc1)[C@@H](C)O)[C@@H](C)CC)C(=O)N[C@@H](C)C(=O)N[C@@H](CC(C)C)C(=O)N[C@@H](CC(=O)O)C(=O)N[C@@H](CCCCN)C(=O)N[C@@H](CCCCNC(=O)COCCOCCNC(=O)COCCOCCNC(=O)CC[C@H](NC(=O)CCCCCCCCCCCCCCCCCCC(=O)O)C(=O)O)C(=O)N[C@@H](Cc1c[nH]cn1)C(=O)N[C@@H](CCC(N)=O)C(=O)NC(C)(C)C(=O)N[C@@H](CC(=O)O)C(=O)N[C@@H](Cc1ccccc1)C(=O)N[C@H](C(=O)N[C@@H](CCC(=O)O)C(=O)N[C@@H](Cc1ccncc1)C(=O)N[C@@H](CC(C)C)C(=O)N[C@@H](CC(C)C)C(=O)N[C@@H](CCC(=O)O)C(=O)N[C@H](C(=O)NCC(=O)N1CCC[C@H]1C(=O)N[C@@H](CO)C(=O)N[C@@H](CO)C(=O)NCC(=O)N[C@@H](C)C(=O)N1CCC[C@H]1C(=O)N1CCC[C@H]1C(=O)N1CCC[C@H]1C(=O)N[C@@H](CO)C(N)=O)[C@@H](C)O)C(C)C [Example 41] (H-Y[Aib]EGT[αMeF]ISDYSIALDKK([AEEA-AEEA-γGlu-C20 diacid])HQ[Aib]DFVE[4Pal]LLETGPSSGAPPPS-NH2) | 6.12
